From patent publication US7732463B2, “4-(2-phenylsulfanyl-phenyl)-piperidine derivatives as serotonin reuptake inhibitors” (H. Lundbeck A/S, priority 2003, dated 2010)

Target: human 5-HT2C-VSV receptors (Homo sapiens, UniProt P28335, I156V/I160V/N158S)
Sequence (P28335 33-458 I156V/N158S/I160V limits assumed): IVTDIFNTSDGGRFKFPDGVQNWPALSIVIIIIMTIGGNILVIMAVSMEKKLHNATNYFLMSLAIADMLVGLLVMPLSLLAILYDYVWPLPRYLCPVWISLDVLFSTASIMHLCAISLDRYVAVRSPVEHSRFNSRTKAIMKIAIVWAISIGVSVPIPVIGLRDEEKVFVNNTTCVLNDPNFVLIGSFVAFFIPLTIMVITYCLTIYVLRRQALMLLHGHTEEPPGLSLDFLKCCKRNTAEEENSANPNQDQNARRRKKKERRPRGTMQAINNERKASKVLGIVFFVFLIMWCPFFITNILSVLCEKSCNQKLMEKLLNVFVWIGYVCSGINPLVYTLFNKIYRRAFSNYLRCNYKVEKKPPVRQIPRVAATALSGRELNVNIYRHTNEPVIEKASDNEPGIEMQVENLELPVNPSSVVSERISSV
Assay type: binding
Settings: not given
With `COc1ccc(Sc2cccc(F)c2C2CCNCC2)c(Cl)c1` [3d25, 4-[2-(2-Chloro-4-methoxy-phenylsulfanyl)-6-fluoro-phenyl]-piperidine] the “affinity to the 5HT2C receptor” value was “good affinity”.
For `Fc1ccccc1Sc1cccc(F)c1C1CCNCC1` [3d12, 4-[2-(2-Fluoro-phenylsulfanyl)-6-fluoro-phenyl]-piperidine], the “affinity to the 5HT2C receptor” value was “good affinity”.
For `Fc1ccc(Sc2ccccc2C2CCNCC2)c(F)c1` [3a4, 4-[2-(2,4-Difluoro-phenylsulfanyl)-phenyl]-piperidine], the “affinity to the 5HT2C receptor” value was “good affinity”.
In the case of `COc1ccc(Sc2ccc(C)cc2C2CCNCC2)cc1` [1i, 4-[2-(4-Methoxy-phenylsulfanyl)-5-methyl-phenyl]-piperidine], the “affinity to the 5HT2C receptor” value is reported as “good affinity”.
For `Fc1ccc(Sc2cccc(F)c2C2CCNCC2)c(F)c1` [3d24, 4-[2-(2,4-Difluoro-phenylsulfanyl)-6-fluoro-phenyl]-piperidine], the “affinity to the 5HT2C receptor” value was “good affinity”.
With `Cc1ccc(Sc2ccc(Cl)cc2)c(C2CCNCC2)c1` [2g, 4-[2-(4-Chloro-phenylsulfanyl)-5-methyl-phenyl]-piperidine] the “affinity to the 5HT2C receptor” value was “good affinity”.
For `COc1ccc(Sc2cccc(F)c2C2CCNCC2)cc1` [3d26, 4-[2-(4-Methoxy-phenylsulfanyl)-6-fluoro-phenyl]-piperidine], the “affinity to the 5HT2C receptor” value was “good affinity”.
With `Cc1ccc(Sc2cccc(F)c2C2CCNCC2)cc1F` [3d7, 4-[2-(3-Fluoro-4-methyl-phenylsulfanyl)-6-fluoro-phenyl]-piperidine] the “affinity to the 5HT2C receptor” value was “good affinity”.
For `COc1ccc(Sc2ccc(F)cc2)c(C2CCNCC2)c1` [3c2, 4-[2-(4-Fluoro-phenylsulfanyl)-5-methoxy-phenyl]-piperidine], the “affinity to the 5HT2C receptor” value was “good affinity”.
With `Fc1ccc(Sc2cc(F)ccc2C2CCNCC2)cc1` [3f3, 4-[2-(4-Fluoro-phenylsulfanyl)-4-fluoro-phenyl]-piperidine] the “affinity to the 5HT2C receptor” value was “good affinity”.
In the case of `COc1ccc(Sc2ccc(F)cc2C2CCNCC2)c(F)c1` [2a3, 4-[2-(2-Fluoro-4-methoxy-phenylsulfanyl)-5-fluoro-phenyl]-piperidine], the “affinity to the 5HT2C receptor” value is reported as “good affinity”.
With `Fc1cc(Cl)ccc1Sc1cccc(F)c1C1CCNCC1` [3d15, 4-[2-(4-Chloro-2-fluoro-phenylsulfanyl)-6-fluoro-phenyl]-piperidine] the “affinity to the 5HT2C receptor” value was “good affinity”.
In the case of `Fc1ccc(Sc2ccc(Br)cc2F)c(C2CCNCC2)c1` [2x, 4-[2-(4-Bromo-2-fluoro-phenylsulfanyl)-5-fluoro-phenyl]-piperidine], the “affinity to the 5HT2C receptor” value is reported as “good affinity”.
With `Fc1cccc(Sc2cccc(Cl)c2)c1C1CCNCC1` [3d10, 4-[2-(3-Chloro-phenylsulfanyl)-6-fluoro-phenyl]-piperidine] the “affinity to the 5HT2C receptor” value was “good affinity”.
In the case of `Fc1ccc(Sc2ccc(F)cc2C2CCNCC2)cc1` [2j, 4-[2-(4-Fluoro-phenylsulfanyl)-5-fluoro-phenyl]-piperidine], the “affinity to the 5HT2C receptor” value is reported as “good affinity”.
For `Cc1ccc(Sc2ccc(C)cc2C2CCNCC2)cc1` [1f, 4-[2-(4-Methyl-phenylsulfanyl)-5-methyl-phenyl]-piperidine], the “affinity to the 5HT2C receptor” value was “good affinity”.
For `Fc1cccc(Sc2ccc(Cl)cc2)c1C1CCNCC1` [3d19, 4-[2-(4-Chloro-phenylsulfanyl)-6-fluoro-phenyl]-piperidine], the “affinity to the 5HT2C receptor” value was “good affinity”.
With `COc1ccc(Sc2cccc(F)c2C2CCNCC2)c(F)c1` [3d23, 4-[2-(2-Fluoro-4-methoxy-phenylsulfanyl)-6-fluoro-phenyl]-piperidine] the “affinity to the 5HT2C receptor” value was “good affinity”.
With `Clc1ccc(Sc2ccccc2C2CCNCC2)cc1` [2a] the “affinity to the 5HT2C receptor” value was “good affinity”.
For `Cc1ccc(Sc2ccc(F)cc2C2CCNCC2)c(F)c1` [2q, 4-[2-(2-Fluoro-4-methyl-phenylsulfanyl)-5-fluoro-phenyl]-piperidine], the “affinity to the 5HT2C receptor” value was “good affinity”.
With `Fc1cccc(Sc2cccc(Cl)c2F)c1C1CCNCC1` [3d17, 4-[2-(3-Chloro-2-fluoro-phenylsulfanyl)-6-fluoro-phenyl]-piperidine] the “affinity to the 5HT2C receptor” value was “good affinity”.
For `Fc1ccc(Sc2cccc(F)c2C2CCNCC2)cc1` [3d27, 4-[2-(4-Fluoro-phenylsulfanyl)-6-fluoro-phenyl]-piperidine], the “affinity to the 5HT2C receptor” value was “good affinity”.
For `COc1ccc(Sc2ccc(F)cc2C2CCNCC2)cc1` [2b, 4-[2-(4-Methoxy-phenylsulfanyl)-5-fluoro-phenyl]-piperidine], the “affinity to the 5HT2C receptor” value was “good affinity”.
With `Fc1ccc(C2CCNCC2)c(Sc2ccccc2Cl)c1` [3f2, 4-[2-(2-Chloro-phenylsulfanyl)-4-fluoro-phenyl]-piperidine] the “affinity to the 5HT2C receptor” value was “good affinity”.
In the case of `Cc1ccc(Sc2cccc(F)c2C2CCNCC2)cc1` [3d18, 4-[2-(4-Methyl-phenylsulfanyl)-6-fluoro-phenyl]-piperidine], the “affinity to the 5HT2C receptor” value is reported as “good affinity”.
In the case of `Fc1cccc(Sc2cccc(F)c2C2CCNCC2)c1` [3d11, 4-[2-(3-Fluoro-phenylsulfanyl)-6-fluoro-phenyl]-piperidine], the “affinity to the 5HT2C receptor” value is reported as “good affinity”.
With `COc1ccc(Sc2ccccc2C2CCNCC2)cc1` [1b, 4-[2-(4-Methoxy-phenylsulfanyl)-phenyl]-piperidine] the “affinity to the 5HT2C receptor” value was “good affinity”.
In the case of `Cc1ccc(Sc2ccc(F)cc2C)c(C2CCNCC2)c1` [1h, 4-[2-(4-Fluoro-2-methyl-phenylsulfanyl)-5-methyl-phenyl]-piperidine], the “affinity to the 5HT2C receptor” value is reported as “good affinity”.
In the case of `Fc1ccc(Sc2ccc(F)cc2C2CCNCC2)c(F)c1` [2t, 4-[2-(2,4-Difluoro-phenylsulfanyl)-5-fluoro-phenyl]-piperidine], the “affinity to the 5HT2C receptor” value is reported as “good affinity”.
With `COc1ccc(Sc2cc(F)ccc2C2CCNCC2)cc1` [1e, 4-[2-(4-Methoxy-phenylsulfanyl)-4-fluoro-phenyl]-piperidine] the “affinity to the 5HT2C receptor” value was “good affinity”.
In the case of `COc1ccc(Sc2cccc(F)c2C2CCNCC2)c(C)c1` [3d4, 4-[2-(4-Methoxy-2-methyl-phenylsulfanyl)-6-fluoro-phenyl]-piperidine], the “affinity to the 5HT2C receptor” value is reported as “good affinity”.
In the case of `COc1ccc(Sc2c(F)cccc2C2CCNCC2)cc1` [2d, 4-[2-(4-Methoxy-phenylsulfanyl)-3-fluoro-phenyl]-piperidine], the “affinity to the 5HT2C receptor” value is reported as “good affinity”.
For `Cc1ccc(Sc2cccc(F)c2C2CCNCC2)c(F)c1` [3d21, 4-[2-(2-Fluoro-4-methyl-phenylsulfanyl)-6-fluoro-phenyl]-piperidine], the “affinity to the 5HT2C receptor” value was “good affinity”.
For `Fc1cccc(Sc2ccc(C(F)(F)F)cc2)c1C1CCNCC1` [3d16, 4-[2-(4-Trifluoromethyl-phenylsulfanyl)-6-fluoro-phenyl]-piperidine], the “affinity to the 5HT2C receptor” value was “good affinity”.
For `Cc1ccc(Sc2c(F)cccc2C2CCNCC2)c(C)c1` [2u, 4-[2-(2,4-Dimethyl-phenylsulfanyl)-3-fluoro-phenyl]-piperidine], the “affinity to the 5HT2C receptor” value was “good affinity”.
In the case of `Fc1ccc(Sc2ccccc2C2CCNCC2)c(Cl)c1` [3a2, 4-[2-(2-Chloro-4-fluoro-phenylsulfanyl)-phenyl]-piperidine], the “affinity to the 5HT2C receptor” value is reported as “good affinity”.
In the case of `Fc1ccc(C2CCNCC2)c(Sc2ccc(Cl)cc2)c1` [1d, 4-[2-(4-Chloro-phenylsulfanyl)-4-fluoro-phenyl]-piperidine], the “affinity to the 5HT2C receptor” value is reported as “good affinity”.
With `Fc1ccc(Sc2ccc(Cl)cc2F)c(C2CCNCC2)c1` [2p, 4-[2-(4-Chloro-2-fluoro-phenylsulfanyl)-5-fluoro-phenyl]-piperidine] the “affinity to the 5HT2C receptor” value was “good affinity”.
For `COc1cc(Sc2cccc(F)c2C2CCNCC2)ccc1F` [3d13, 4-[2-(4-Fluoro-3-methoxy-phenylsulfanyl)-6-fluoro-phenyl]-piperidine], the “affinity to the 5HT2C receptor” value was “good affinity”.

Tested on: hippocampal 5-HT
Settings: rats, microdialysis, combined with citalopram; cited from earlier work
For `COc1ccc(NC(=O)c2ccc(-c3ccc(-c4nnc(C)o4)cc3C)cc2)cc1N1CCN(C)CC1` [GMC 2-29], the “increase of hippocampal 5-HT by citalopram” value is listed as “potentiated”.
